How the values were obtained:
Type in all cases: functional
Mus musculus [1] = assay: Reversal of electroconvulsive shock induced amnesia in mice following 20 mg/Kg p.o.
Mus musculus [2] = assay: Ability to reverse electroconvulsive shock (ECS) induced amnesia in mice, at a dose of 5 mg/Kg administered perorally
Mus musculus [3] = assay: Ability to reverse electroconvulsive shock (ECS) induced amnesia in mice, at a dose of 80 mg/Kg administered perorally
Mus musculus [4] = assay: Ability to reverse electroconvulsive shock (ECS) induced amnesia in mice, at a dose of 2.5 mg/Kg administered perorally
Mus musculus [5] = assay: Ability to reverse electroconvulsive shock (ECS) induced amnesia in mice, at a dose of 0.6 mg/Kg administered perorally
Mus musculus [6] = assay: Ability to reverse electroconvulsive shock (ECS) induced amnesia in mice, at a dose of 1.25 mg/Kg administered perorally
Mus musculus [7] = assay: Ability to reverse electroconvulsive shock (ECS) induced amnesia in mice, at a dose of 10 mg/Kg administered perorally
Mus musculus [8] = assay: Reversal of electroconvulsive shock induced amnesia in mice following 100 mg/Kg p.o.
Mus musculus [9] = assay: Reversal of electroconvulsive shock induced amnesia in mice following 1 mg/Kg p.o.
Mus musculus [10] = assay: Ability to reverse electroconvulsive shock (ECS) induced amnesia in mice, at a dose of 0.63 mg/Kg administered perorally
Mus musculus [11] = assay: Ability to reverse electroconvulsive shock (ECS) induced amnesia in mice, at a dose of 320 mg/Kg administered perorally
Mus musculus [12] = assay: Ability to reverse electroconvulsive shock (ECS) induced amnesia in mice, at a dose of 40 mg/Kg administered perorally
Mus musculus [13] = assay: Ability to reverse electroconvulsive shock (ECS) induced amnesia in mice, at a dose of 160 mg/Kg administered perorally
Mus musculus [14] = assay: Ability to reverse electroconvulsive shock (ECS) induced amnesia in mice, at a dose of 0.31 mg/Kg administered perorally
Mus musculus [15] = assay: Ability to reverse electroconvulsive shock (ECS) induced amnesia in mice, at a dose of 1 mg/Kg administered perorally
Mus musculus [16] = assay: Ability to reverse electroconvulsive shock (ECS) induced amnesia in mice, at a dose of 10 mg/kg administered perorally; details: route oral
Mus musculus [17] = assay: Ability to reverse electroconvulsive shock (ECS) induced amnesia in mice, at a dose of 10 mg/Kg administered perorally(Exp-1)
Mus musculus [18] = assay: Ability to reverse electroconvulsive shock (ECS) induced amnesia in mice, at a dose of 1.0 mg/Kg administered perorally(Exp-1)
Mus musculus [19] = assay: Ability to reverse electroconvulsive shock (ECS) induced amnesia in mice, at a dose of 1.0 mg/Kg administered perorally(Exp-2)
Mus musculus [20] = assay: Ability to reverse electroconvulsive shock (ECS) induced amnesia in mice, at a dose of 100 mg/Kg administered perorally(Exp-2)
Mus musculus [21] = assay: Ability to reverse electroconvulsive shock (ECS) induced amnesia in mice, at a dose of 10 mg/Kg administered perorally(Exp-2)
Mus musculus [22] = assay: Ability to reverse electroconvulsive shock (ECS) induced amnesia in mice, at a dose of 100 mg/Kg administered perorally(Exp-1)

Row | SMILES | Reversal (Mus musculus [1]) [%] | Reversal (Mus musculus [2]) [%] | Reversal (Mus musculus [3]) [%] | Reversal (Mus musculus [7]) [%] | Reversal (Mus musculus [8]) [%] | Reversal (Mus musculus [9]) [%] | also measured
1 | CCOC(=O)CCC1CCC(=O)N1 (stereo unspecified) | 0 | 10 | 27 | – | – | – | –
2 | O=C1CCC(CCC(=O)OCc2ccccc2)N1 (stereo unspecified) | 64 | 64 | 71 | – | – | – | Reversal (Mus musculus [4]): 67%; Reversal (Mus musculus [5]): 44%; Reversal (Mus musculus [6]): 56%
3 | O=C1CCSC2CCC(=O)N12 (stereo unspecified) | – | – | – | 51 | 55 | 19 | –
4 | O=C(CCC1CCC(=O)N1)Nc1ccncc1 (stereo unspecified) | – | – | – | 59 | 53 | 64 | –
5 | O=C(O)CCCC1CCCC(=O)N1 (stereo unspecified) | 100 | 67 | 0 | – | – | – | –
6 | O=C1CCC2CCC(=O)N12 [ROLZIRACETAM] | 31 | 69 | 63 | – | – | – | Reversal (Mus musculus [10]): 73%; Reversal (Mus musculus [4]): 25%; Reversal (Mus musculus [11]): 85%; Reversal (Mus musculus [6]): 27%; Reversal (Mus musculus [12]): 92%; Reversal (Mus musculus [13]): 62%; Reversal (Mus musculus [14]): 19%
7 | O=C(O)CCCC1CCC(=O)N1 (stereo unspecified) | – | – | – | 50 | 100 | 34 | –
8 | COC(=O)CCSC1CCC(=O)N1 (stereo unspecified) | – | – | – | – | 87 | – | Reversal (Mus musculus [15]): 53%; Reversal (Mus musculus [16]): 25%
9 | O=C1CCC(/C=C/C(=O)OCc2ccccc2)N1 (stereo unspecified) | – | – | – | – | 17 | – | Reversal (Mus musculus [15]): 0%; Reversal (Mus musculus [16]): 31%
10 | O=C1CCC(CCC(=O)OCc2cccc(Cl)c2)N1 (stereo unspecified) | – | – | – | 30 | 90 | 100 | –
11 | O=C(O)CC1CCC(=O)N1 (stereo unspecified) | – | – | – | 0 | 42 | 2 | –
12 | O=C(O)CCC1CCCCC(=O)N1 (stereo unspecified) | – | – | – | 38 | 67 | 0 | –
13 | NC(=O)CCC1CCC(=O)N1 (stereo unspecified) | – | – | – | 33 | 64 | 64 | –
14 | O=C1CCC2CCC(O)N12 (stereo unspecified) | – | – | – | – | 17 | – | Reversal (Mus musculus [15]): 19%; Reversal (Mus musculus [16]): 27%
15 | O=C1CCCC2CCC(=O)N12 (stereo unspecified) | 50 | 29 | 64 | – | – | – | Reversal (Mus musculus [4]): 56%; Reversal (Mus musculus [6]): 18%
16 | Cc1cccc(C)c1NC(=O)CCC1CCC(=O)N1 (stereo unspecified) | – | – | – | 56 | 50 | 49 | –
17 | O=C(CCC1CCC(=O)N1)NCCc1ccc(O)cc1 (stereo unspecified) | – | – | – | 0 | 0 | 20 | –
18 | O=C(CCC1CCC(=O)N1)NCc1ccccc1 (stereo unspecified) | 62 | 0 | 50 | – | – | – | –

Row | SMILES | Reversal (Mus musculus [1]) [%] | Reversal (Mus musculus [2]) [%] | Reversal (Mus musculus [3]) [%] | Reversal (Mus musculus [7]) [%] | Reversal (Mus musculus [8]) [%] | Reversal (Mus musculus [9]) [%] | also measured
19 | O=C1CCC2SCC(=O)N12 (stereo unspecified) | – | – | – | 0 | 0 | 31 | –
20 | CC1CC2CC(C)C(=O)N2C1=O (stereo unspecified) | 20 | 0 | 20 | – | – | – | –
21 | O=C1CCCCC2CCC(=O)N12 (stereo unspecified) | 9 | 14 | 36 | – | – | – | –
22 | O=C(O)CCC1CCCC(=O)N1 (stereo unspecified) | 70 | 86 | 8 | – | – | 67 | Reversal (Mus musculus [4]): 60%; Reversal (Mus musculus [6]): 56%
23 | CC12CCC(=O)N1C(=O)CC2 | 77 | 31 | 85 | – | – | – | –
24 | CCOC(=O)CCSC1CCC(=O)N1 (stereo unspecified) | – | – | – | – | 44 | – | Reversal (Mus musculus [15]): 49%; Reversal (Mus musculus [16]): 66%
25 | O=C1CCCC2CCCC(=O)N12 | 44 | 33 | 55 | – | – | – | –
26 | CC1CC2CCC(=O)N2C1=O (stereo unspecified) | 0 | 50 | 30 | – | – | – | Reversal (Mus musculus [4]): 50%; Reversal (Mus musculus [6]): 20%
27 | O=C(O)CCC1CCC(=O)N1 (stereo unspecified) | 100 | 89 | 67 | – | – | – | Reversal (Mus musculus [4]): 91%; Reversal (Mus musculus [5]): 58%; Reversal (Mus musculus [6]): 83%
28 | CC(OC(=O)CCC1CCC(=O)N1)c1ccccc1 (stereo unspecified) | – | – | – | 60 | 16 | 13 | –
29 | O=C1CCC(CCC(=O)NC23C[C@H]4C[C@@H](C2)C[C@@H](C3)C4)N1 (stereo partly specified) | – | – | – | 40 | 57 | 57 | –
30 | COC(=O)CCC1CCC(=O)N1 (stereo unspecified) | 100 | 75 | 75 | – | – | – | –
31 | CC(C)N(CCNC(=O)CCC1CCC(=O)N1)C(C)C (stereo unspecified) | 33 | 17 | 17 | – | – | – | –
32 | CC(C)OC(=O)CCC1CCC(=O)N1 (stereo unspecified) | 42 | – | – | – | 16 | 42 | –
33 | O=C1CCC(CCC(=O)OCc2ccc(Cl)cc2)N1 (stereo unspecified) | – | – | – | 25 | 42 | 0 | –
34 | O=C1CCC(CCC(=O)OCc2ccccc2Cl)N1 (stereo unspecified) | – | – | – | – | – | – | Reversal (Mus musculus [17]): 80%; Reversal (Mus musculus [18]): 30%; Reversal (Mus musculus [19]): 15%; Reversal (Mus musculus [20]): 31%; Reversal (Mus musculus [21]): 85%; Reversal (Mus musculus [22]): 70%
35 | O=C(O)CSC1CCC(=O)N1 (stereo unspecified) | – | – | – | – | 31 | – | Reversal (Mus musculus [15]): 64%; Reversal (Mus musculus [16]): 21%
36 | O=C1CCC(CCCC(=O)OCc2ccccc2)N1 (stereo unspecified) | – | – | – | 24 | 43 | 70 | –
